These results are taken from patent US8691865B2 (AbbVie Inc., priority 2008, dated 2014).

For one assay, the target named is human Cav2.2 (Homo sapiens, UniProt Q00975). Nature of the assay: Assessment of calcium channel activity using FLIPR (Ca2+ influx in IMR32 cells). It counts as cell-based.
Chain of human Cav2.2 (Q00975 whole entry): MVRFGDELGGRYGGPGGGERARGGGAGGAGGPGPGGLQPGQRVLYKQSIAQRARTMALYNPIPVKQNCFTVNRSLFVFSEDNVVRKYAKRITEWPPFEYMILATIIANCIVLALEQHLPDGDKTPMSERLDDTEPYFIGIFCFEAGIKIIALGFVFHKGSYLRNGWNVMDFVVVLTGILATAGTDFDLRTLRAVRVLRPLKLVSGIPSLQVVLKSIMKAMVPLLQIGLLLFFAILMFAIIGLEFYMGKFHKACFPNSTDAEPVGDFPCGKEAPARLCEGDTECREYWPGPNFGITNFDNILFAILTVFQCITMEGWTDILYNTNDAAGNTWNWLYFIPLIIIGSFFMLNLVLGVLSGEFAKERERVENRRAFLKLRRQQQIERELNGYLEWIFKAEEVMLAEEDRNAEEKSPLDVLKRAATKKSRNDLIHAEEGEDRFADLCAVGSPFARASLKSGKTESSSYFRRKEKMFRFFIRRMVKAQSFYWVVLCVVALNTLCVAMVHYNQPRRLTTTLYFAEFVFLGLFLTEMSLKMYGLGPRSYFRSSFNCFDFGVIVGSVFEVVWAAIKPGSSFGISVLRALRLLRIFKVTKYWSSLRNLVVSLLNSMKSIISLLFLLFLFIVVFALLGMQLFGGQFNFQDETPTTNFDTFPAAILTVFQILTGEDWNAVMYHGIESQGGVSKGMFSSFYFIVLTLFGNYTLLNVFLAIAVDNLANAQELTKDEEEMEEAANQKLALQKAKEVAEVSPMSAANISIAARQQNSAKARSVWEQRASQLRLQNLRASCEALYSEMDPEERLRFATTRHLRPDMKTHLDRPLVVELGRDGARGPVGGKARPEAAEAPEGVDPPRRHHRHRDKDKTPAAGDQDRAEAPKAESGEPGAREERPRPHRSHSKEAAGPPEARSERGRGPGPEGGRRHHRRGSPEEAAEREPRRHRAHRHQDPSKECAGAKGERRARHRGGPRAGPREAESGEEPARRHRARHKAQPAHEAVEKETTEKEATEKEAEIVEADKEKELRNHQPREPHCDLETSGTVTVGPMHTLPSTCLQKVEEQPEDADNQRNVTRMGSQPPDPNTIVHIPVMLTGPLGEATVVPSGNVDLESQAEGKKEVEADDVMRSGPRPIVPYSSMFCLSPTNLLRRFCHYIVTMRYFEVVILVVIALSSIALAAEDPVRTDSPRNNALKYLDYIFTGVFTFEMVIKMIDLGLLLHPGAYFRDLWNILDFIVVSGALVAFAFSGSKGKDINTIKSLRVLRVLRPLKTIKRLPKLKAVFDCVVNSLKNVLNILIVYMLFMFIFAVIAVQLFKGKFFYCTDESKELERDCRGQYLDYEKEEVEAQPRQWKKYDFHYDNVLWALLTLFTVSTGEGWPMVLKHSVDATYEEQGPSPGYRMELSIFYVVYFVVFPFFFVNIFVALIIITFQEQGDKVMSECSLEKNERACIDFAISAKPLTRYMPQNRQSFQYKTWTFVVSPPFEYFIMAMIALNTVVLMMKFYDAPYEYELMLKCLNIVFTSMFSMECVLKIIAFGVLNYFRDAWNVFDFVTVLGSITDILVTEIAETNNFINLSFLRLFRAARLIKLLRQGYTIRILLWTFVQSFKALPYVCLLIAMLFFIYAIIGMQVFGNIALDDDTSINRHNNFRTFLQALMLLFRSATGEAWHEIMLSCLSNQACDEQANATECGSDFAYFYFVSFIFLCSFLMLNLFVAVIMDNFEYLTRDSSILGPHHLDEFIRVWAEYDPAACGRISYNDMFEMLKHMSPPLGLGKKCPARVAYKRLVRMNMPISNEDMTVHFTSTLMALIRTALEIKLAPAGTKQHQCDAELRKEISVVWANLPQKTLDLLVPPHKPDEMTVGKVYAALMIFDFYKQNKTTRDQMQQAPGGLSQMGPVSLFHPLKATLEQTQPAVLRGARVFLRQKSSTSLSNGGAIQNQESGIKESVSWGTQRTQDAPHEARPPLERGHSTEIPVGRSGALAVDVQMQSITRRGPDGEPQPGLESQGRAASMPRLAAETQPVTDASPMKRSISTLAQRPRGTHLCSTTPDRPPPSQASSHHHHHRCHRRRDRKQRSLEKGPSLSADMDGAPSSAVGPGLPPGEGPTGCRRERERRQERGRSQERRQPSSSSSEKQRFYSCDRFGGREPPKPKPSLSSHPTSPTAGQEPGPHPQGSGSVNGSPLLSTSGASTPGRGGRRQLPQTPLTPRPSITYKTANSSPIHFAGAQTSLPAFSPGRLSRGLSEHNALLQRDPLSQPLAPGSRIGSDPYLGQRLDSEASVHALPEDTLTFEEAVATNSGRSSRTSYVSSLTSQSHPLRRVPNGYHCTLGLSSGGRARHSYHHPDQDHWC
Chain of human Cav2.2 (P54289 25-956 partner limits assumed): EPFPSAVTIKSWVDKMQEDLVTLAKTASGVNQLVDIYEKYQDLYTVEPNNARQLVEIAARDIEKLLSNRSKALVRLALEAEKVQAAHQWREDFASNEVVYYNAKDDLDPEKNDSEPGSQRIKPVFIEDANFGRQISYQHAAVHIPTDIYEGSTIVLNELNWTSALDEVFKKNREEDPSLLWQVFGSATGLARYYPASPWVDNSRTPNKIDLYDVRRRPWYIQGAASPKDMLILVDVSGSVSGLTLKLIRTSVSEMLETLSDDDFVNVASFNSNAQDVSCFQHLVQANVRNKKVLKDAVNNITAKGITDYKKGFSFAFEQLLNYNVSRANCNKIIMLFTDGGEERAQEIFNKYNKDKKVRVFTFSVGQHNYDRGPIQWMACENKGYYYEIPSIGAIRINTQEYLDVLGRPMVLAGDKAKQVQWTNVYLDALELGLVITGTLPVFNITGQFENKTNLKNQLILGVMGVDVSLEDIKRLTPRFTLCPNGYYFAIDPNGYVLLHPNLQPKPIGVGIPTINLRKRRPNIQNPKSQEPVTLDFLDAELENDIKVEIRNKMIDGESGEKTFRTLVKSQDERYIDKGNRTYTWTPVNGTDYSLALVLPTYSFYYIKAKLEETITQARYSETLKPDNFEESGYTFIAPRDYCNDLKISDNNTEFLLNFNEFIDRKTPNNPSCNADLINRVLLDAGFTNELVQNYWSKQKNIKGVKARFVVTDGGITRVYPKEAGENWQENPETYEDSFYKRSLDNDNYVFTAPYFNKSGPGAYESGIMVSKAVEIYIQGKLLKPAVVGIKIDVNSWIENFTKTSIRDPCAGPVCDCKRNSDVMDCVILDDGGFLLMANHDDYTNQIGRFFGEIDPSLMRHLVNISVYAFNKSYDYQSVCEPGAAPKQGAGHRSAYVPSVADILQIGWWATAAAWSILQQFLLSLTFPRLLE
Chain of human Cav2.2 (P54289 957-1103 partner limits assumed): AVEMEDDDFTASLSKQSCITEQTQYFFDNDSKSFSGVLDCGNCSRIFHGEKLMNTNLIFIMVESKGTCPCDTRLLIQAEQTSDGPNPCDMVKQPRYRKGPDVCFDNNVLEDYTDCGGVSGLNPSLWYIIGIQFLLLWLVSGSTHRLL
Chain of human Cav2.2 (P54284 whole entry partner): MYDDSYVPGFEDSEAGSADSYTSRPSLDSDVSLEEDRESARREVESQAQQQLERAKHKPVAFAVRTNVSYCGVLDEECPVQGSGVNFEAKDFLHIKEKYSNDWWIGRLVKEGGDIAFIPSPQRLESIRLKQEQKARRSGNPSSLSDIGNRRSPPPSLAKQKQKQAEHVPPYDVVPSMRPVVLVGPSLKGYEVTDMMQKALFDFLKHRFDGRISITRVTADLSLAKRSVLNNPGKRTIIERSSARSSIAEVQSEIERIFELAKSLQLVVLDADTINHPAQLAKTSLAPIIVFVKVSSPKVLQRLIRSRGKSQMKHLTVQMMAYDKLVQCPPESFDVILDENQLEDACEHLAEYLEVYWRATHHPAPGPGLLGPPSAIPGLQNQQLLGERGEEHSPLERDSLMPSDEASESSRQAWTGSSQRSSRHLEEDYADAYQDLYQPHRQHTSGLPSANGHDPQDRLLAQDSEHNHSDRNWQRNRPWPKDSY
Details: not given
The gist of the method: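 IC50 values derive from nonlinear sigmoidal fitting of percent inhibition, relative to inhibitor-free activity, of Ca2+ influx read by FLIPR. Cells were IMR32 human neuroblastoma, plated at 1−1.2×10^5 per well and grown 48 h at 37 °C.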
For `O=C(N[C@H]1CC[C@H]2CN(Cc3cccc(F)c3)C[C@H]21)C(C1CCCCC1)C1CCCCC1` [Example 64, 2,2-dicyclohexyl-N-[(3aS,4S,6aR)-2-(3-fluorobenzyl)octahydrocyclopenta[c]pyrrol-4-yl]acetamide], the IC50 came out at 0.99 µM.

Turning to `CCC(CC)C(=O)N[C@H]1CC[C@H]2CN(Cc3cccc(C(F)(F)F)c3)C[C@H]21` (relative stereo) [Example 125, 2-ethyl-N-{(3aS*,4S*,6aR*)-2-[3-(trifluoromethyl)benzyl]octahydrocyclopenta[c]pyrrol-4-yl}butanamide], the IC50 was 2.07 µM.

Regarding `CN[C@@H](CC(C)C)C(=O)N[C@H]1CC[C@@H]2CN(c3cccc(C(F)(F)F)c3F)C[C@@H]21` [Example 635, N-{(3aR,4S,6aS)-2-[2-fluoro-3-(trifluoromethyl)phenyl]octahydrocyclopenta[c]pyrrol-4-yl}-N^2-methyl-L-leucinamide], the IC50 was determined as 0.92 µM.

As to `Cn1nccc1CN[C@H]1CC[C@@H]2CN(c3cccc(C(F)(F)F)n3)C[C@@H]21` [Example 725, (3aR,4S,6aS)-N-[(1-methyl-1H-pyrazol-5-yl)methyl]-2-[6-(trifluoromethyl)pyridin-2-yl]octahydrocyclopenta[c]pyrrol-4-amine], the IC50 stood at 0.94 µM.

As for `FC(F)(F)c1cccc(N2C[C@H]3CC[C@H](NCc4nc(-c5ccc(Cl)cc5)c[nH]4)[C@H]3C2)n1` [Example 745, (3aR,4S,6aS)-N-{[4-(4-chlorophenyl)-1H-imidazol-2-yl]methyl}-2-[6-(trifluoromethyl)pyridin-2-yl]octahydrocyclopenta[c]pyrrol-4-amine], the IC50 amounted to 3.51 µM.

`O=C(N[C@H]1CC[C@@H]2CN(c3cccc(C(F)(F)F)n3)C[C@@H]21)c1ccc2ccccc2n1` [Example 569, N-{(3aR,4S,6aS)-2-[6-(trifluoromethyl)pyridin-2-yl]octahydrocyclopenta[c]pyrrol-4-yl}quinoline-2-carboxamide]: the IC50 was found to be 0.98 µM.

For `CN[C@@H](CC(C)C)C(=O)N[C@H]1CC[C@@H]2CN(c3cccc(C#N)c3)C[C@@H]21` [Example 646, N-[(3aR,4S,6aS)-2-(3-cyanophenyl)octahydrocyclopenta[c]pyrrol-4-yl]-N^2-methyl-L-leucinamide], the IC50 was 2.16 µM.

Regarding `O=C(Nc1ccc(F)c(Cl)c1)N[C@H]1CC[C@@H]2CN(c3cccc(C(F)(F)F)n3)C[C@@H]21` [Example 714, 1-(3-chloro-4-fluorophenyl)-3-{(3aR,4S,6aS)-2-[6-(trifluoromethyl)pyridin-2-yl]octahydrocyclopenta[c]pyrrol-4-yl}urea], the IC50 was determined as 2.8 µM.

Regarding `CN[C@@H](C)C(=O)N[C@H]1CC[C@@H]2CN(c3ccc(C(F)(F)F)cc3)C[C@@H]21` [Example 753, N^2-methyl-N-{(3aR,4S,6aS)-2-[4-(trifluoromethyl)phenyl]octahydrocyclopenta[c]pyrrol-4-yl}-L-alaninamide], the IC50 was more than 9.5 µM.

For `FC(F)(F)c1cccc(N2C[C@H]3CC[C@H](NCc4cc5cc(Cl)ccc5[nH]4)[C@H]3C2)n1` [Example 665, (3aR,4S,6aS)-N-[(5-chloro-1H-indol-2-yl)methyl]-2-[6-(trifluoromethyl)pyridin-2-yl]octahydrocyclopenta[c]pyrrol-4-amine], the IC50 amounted to 2.99 µM.

On to `CN[C@@H](CC(C)C)C(=O)N[C@H]1CC[C@@H]2CN(c3ccc(C(F)(F)F)nn3)C[C@@H]21` [Example 724, N^2-methyl-N-{(3aR,4S,6aS)-2-[6-(trifluoromethyl)pyridazin-3-yl]octahydrocyclopenta[c]pyrrol-4-yl}-L-leucinamide], for which the IC50 was 22.3 µM.

As for `O=C(N[C@H]1CC[C@H]2CN(Cc3ccccc3F)C[C@H]21)C(C1CCCCC1)C1CCCCC1` [Example 55, 2,2-dicyclohexyl-N-[(3aS,4S,6aR)-2-(2-fluorobenzyl)octahydrocyclopenta[c]pyrrol-4-yl]acetamide], the IC50 stood at 1.12 µM.

Turning to `Fc1cc(F)cc(-c2n[nH]cc2CN[C@H]2CC[C@@H]3CN(c4cccc(C(F)(F)F)n4)C[C@@H]32)c1` [Example 687, (3aR,4S,6aS)-N-{[3-(3,5-difluorophenyl)-1H-pyrazol-4-yl]methyl}-2-[6-(trifluoromethyl)pyridin-2-yl]octahydrocyclopenta[c]pyrrol-4-amine], the IC50 turned out to be 1.27 µM.

For `CCC[C@H](NC)C(=O)N(C)[C@H]1CC[C@@H]2CN(S(=O)(=O)c3ccc(C(F)(F)F)cc3)C[C@@H]21` [Example 438, N^1,N^2-dimethyl-N^1-((3aR,4S,6aS)-2-{[4-(trifluoromethyl)phenyl]sulfonyl}octahydrocyclopenta[c]pyrrol-4-yl)-L-norvalinamide], the IC50 was found to be 5.7 µM.

Still in this assay, the particulars now being: read-out: IC50 (μM) or percent inhibition (* indicates 3 minute incubation, otherwise 60 minute); IC50; 60 minute pre-incubation with compound; IMR32 cells, 80 mM KCl depolarization.
Regarding `CC(C)(C)CN[C@@H](CC(C)(C)C)C(=O)N[C@H]1CC[C@@H]2CN(S(=O)(=O)c3ccc(C(F)(F)F)cc3)C[C@@H]21` [Example 505, 4-methyl-N^2-neopentyl-N^1-((3aR,4S,6aS)-2-{[4-(trifluoromethyl)phenyl]sulfonyl}octahydrocyclopenta[c]pyrrol-4-yl)-L-leucinamide], the IC50 amounted to 2.23 µM.

For `CC(C)(C)C[C@H](NCC1CC1)C(=O)N[C@H]1CC[C@@H]2CN(c3cccc(C(F)(F)F)n3)C[C@@H]21` [Example 479, N^2-(cyclopropylmethyl)-4-methyl-N^1-{(3aR,4S,6aS)-2-[6-(trifluoromethyl)pyridin-2-yl]octahydrocyclopenta[c]pyrrol-4-yl}-L-leucinamide], the IC50 stood at 0.26 µM.

On to `CC(C)C(C(=O)N[C@H]1CC[C@@H]2CN(Cc3ccc(F)cc3)C[C@@H]21)c1ccccc1` (stereo partly drawn) [Example 89, N-[(3aR,4S,6aS)-2-(4-fluorobenzyl)octahydrocyclopenta[c]pyrrol-4-yl]-3-methyl-2-phenylbutanamide], for which the IC50 came to 2.01 µM.

`CN[C@H](CC(C)C)C(=O)N[C@@H]1CC[C@H]2CN(Cc3cccc(C(F)(F)F)c3)C[C@H]21` (relative stereo) [Example 163, N^2-methyl-N^1-{(3aS*,4R*,6aR*)-2-[3-(trifluoromethyl)benzyl]octahydrocyclopenta[c]pyrrol-4-yl}-D-leucinamide]: the IC50 was 4.59 µM.

Take `O=S(=O)(N[C@H]1CC[C@H]2CN(Cc3cccc(C(F)(F)F)c3)C[C@H]21)c1cccc(C(F)(F)F)c1` [Example 187, 3-(trifluoromethyl)-N-{(3aS,4S,6aR)-2-[3-(trifluoromethyl)benzyl]octahydrocyclopenta[c]pyrrol-4-yl}benzenesulfonamide]: the IC50 stood at 1.24 µM.

On to `O=C(N[C@@H]1CC[C@H]2CN(Cc3ccc(F)cc3)C[C@H]21)[C@@H]1CCCCN1` [Example 368, (2S)-N-[(3aS,4R,6aR)-2-(4-fluorobenzyl)octahydrocyclopenta[c]pyrrol-4-yl]piperidine-2-carboxamide], for which the IC50 came out at 12.4 µM.

Consider `CC(C)C(C(=O)N[C@H]1CC[C@@H]2CN(Cc3ccc(C(C)(C)C)cc3)C[C@@H]21)c1ccccc1` (stereo partly drawn) [Example 95, N-[(3aR,4S,6aS)-2-(4-tert-butylbenzyl)octahydrocyclopenta[c]pyrrol-4-yl]-3-methyl-2-phenylbutanamide], for which the IC50 amounted to 1.04 µM.

`CC(C)C[C@H](NS(=O)(=O)CC(C)C)C(=O)N[C@@H]1CC[C@H]2CN(Cc3cccc(C(F)(F)F)c3)C[C@H]21` [Example 173, N^2-(isobutylsulfonyl)-N^1-{(3aS,4R,6aR)-2-[3-(trifluoromethyl)benzyl]octahydrocyclopenta[c]pyrrol-4-yl}-L-leucinamide]: the 50% inhibitory concentration (IC50) was 1.81 µM.

Consider “N-(tert-butoxycarbonyl)-N-((3aR,4S,6aS)-2-{[3-(trifluoromethyl)phenyl]sulfonyl}octahydrocyclopenta[c]pyrrol-4-yl)-L-phenylalaninamide [Example 269]”, for which the 50% inhibitory concentration (IC50) stood at 1.9 µM.

Consider `O=C(N[C@H]1CC[C@H]2CN(Cc3ccncc3)C[C@H]21)C(C1CCCCC1)C1CCCCC1` [Example 72, 2,2-dicyclohexyl-N-[(3aS,4S,6aR)-2-(pyridin-4-ylmethyl)octahydrocyclopenta[c]pyrrol-4-yl]acetamide], for which the IC50 worked out at 3.23 µM.

As for `CC(C)C(C(=O)N[C@@H]1CC[C@H]2CN(Cc3cccc(C(F)(F)F)c3)C[C@H]21)c1ccccc1` (stereo partly drawn) [Example 82, 3-methyl-2-phenyl-N-{(3aS,4R,6aR)-2-[3-(trifluoromethyl)benzyl]octahydrocyclopenta[c]pyrrol-4-yl}butanamide], the IC50 stood at 1.48 µM.

With `CC(C)C[C@@H](C(=O)N[C@@H]1CC[C@@H]2CN(Cc3ccccc3)C[C@@H]21)N(C)C(=O)OC(C)(C)C` [Example 241], the IC50 worked out at 2.08 µM.

Take `CC(C)C(C(=O)N(C)[C@@H]1CC[C@H]2CN(Cc3ccccc3)C[C@H]21)c1ccccc1` (relative stereo) [Example 215, N-[(3aS*,4R*,6aR*)-2-benzyloctahydrocyclopenta[c]pyrrol-4-yl]-N,3-dimethyl-2-phenylbutanamide]: the IC50 amounted to 1.99 µM.

For `CC(C)(C)OC(=O)N[C@H](C(=O)N[C@H]1CC[C@@H]2CN(Cc3ccccc3)C[C@@H]21)C(C)(C)C` [Example 225, tert-butyl(S)-1-((3aR,4S,6aS)-2-benzyloctahydrocyclopenta[c]pyrrol-4-ylamino)-3,3-dimethyl-1-oxobutan-2-ylcarbamate], the half-inhibitory concentration (IC50) worked out at 9.36 µM.

Take `CC(C)C(C(=O)N[C@H]1CC[C@@H]2CN(Cc3cccc(F)c3)C[C@@H]21)c1ccccc1` (stereo partly drawn) [Example 87, N-[(3aR,4S,6aS)-2-(3-fluorobenzyl)octahydrocyclopenta[c]pyrrol-4-yl]-3-methyl-2-phenylbutanamide]: the IC50 worked out at 3.14 µM.

`O=C(N[C@@H]1CC[C@H]2CN(CCC(c3ccc(F)cc3)c3ccc(F)cc3)C[C@H]21)C(C1CCCCC1)C1CCCCC1` [Example 80, N-{(3aS,4R,6aR)-2-[3,3-bis(4-fluorophenyl)propyl]octahydrocyclopenta[c]pyrrol-4-yl}-2,2-dicyclohexylacetamide]: the IC50 amounted to 1.67 µM.

For `CC(C)(C)C(C(=O)N[C@@H]1CC[C@H]2CN(Cc3ccccc3)C[C@H]21)c1ccccc1` (stereo partly drawn) [Example 30, N-[(3aS,4R,6aR)-2-benzyloctahydrocyclopenta[c]pyrrol-4-yl]-3,3-dimethyl-2-phenylbutanamide], the IC50 was 1.81 µM.

A word on the IC50: it is the concentration that inhibits the measured activity by half.
